Results published in patent publication US6913708B2, “Cholesteric liquid crystal drying process and solvent” (3M Innovative Properties Company, priority 2003, dated 2005).

Assay: Solubility of cholesteric liquid crystal monomer in hot (boiling) solvents
Format: physicochemical
Method: Comparison of the Solubility of Various Monomers in 1,3-dioxolane and other Solvents.
4-(2-Acryloyloxy-ethoxy)-benzoic acid 4′-cyano-biphenyl-4-yl ester is a cholesteric liquid crystal monomer with the structure given below and can be prepared as described in European Patent Application Publication No. 834754, incorporated herein by reference. [drawing 2]
4-(2-Acryloyloxy-ethoxy)-benzoic acid 4′-cyano-biphenyl-4-yl ester was dissolved in hot (boiling) tetrahydrofuran and hot 1,3-dioxolane. Only 20% of the monomer dissolved in the tetrahydrofuran, while 40% dissolved in the 1,3-dioxolane.

fraction of the monomer dissolved (hot 1,3-dioxolane): 40% | fraction of the monomer dissolved (hot (boiling) tetrahydrofuran): 20%
Compound: C=CC(=O)OCCOc1ccc(C(=O)Oc2ccc(-c3ccc(C#N)cc3)cc2)cc1 [4-(2-Acryloyloxy-ethoxy)-benzoic acid 4′-cyano-biphenyl-4-yl ester]
